From PubChem BioAssay (NCI)
“And” between values parts separate entries of the source, which are not always exact repeats. Equal values may be shown once.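 Exposure lasted 48 hours, with cells grown in 96-well plates and compounds tested at five concentrations. Here, GI50 denotes the concentration required for 50% inhibition of growth. TGI denotes the concentration required for complete inhibition of growth.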

Legend:
Experiment in all cases: growth of human tumour cells (NCI), 48 h
CCRF-CEM leukemia = tested on: CCRF-CEM leukemia
M14 melanoma = tested on: M14 melanoma
OVCAR-8 ovarian = tested on: OVCAR-8 ovarian
SN12C renal = tested on: SN12C renal
NCI-H23 lung = tested on: NCI-H23 lung
MOLT-4 leukemia = tested on: MOLT-4 leukemia
SW-620 colon = tested on: SW-620 colon
IGROV1 ovarian = tested on: IGROV1 ovarian
NCI/ADR-RES ovarian = tested on: NCI/ADR-RES ovarian
DU-145 prostate = tested on: DU-145 prostate

| SMILES | GI50 (CCRF-CEM leukemia) | TGI (CCRF-CEM leukemia) [µM] | GI50 (M14 melanoma) [nM] | TGI (M14 melanoma) [µM] | GI50 (OVCAR-8 ovarian) [nM] | TGI (OVCAR-8 ovarian) [µM] | GI50 (SN12C renal) | TGI (SN12C renal) [µM] | GI50 (NCI-H23 lung) | TGI (NCI-H23 lung) | GI50 (MOLT-4 leukemia) [nM] | TGI (MOLT-4 leukemia) | GI50 (SW-620 colon) [nM] | TGI (SW-620 colon) | GI50 (IGROV1 ovarian) | TGI (IGROV1 ovarian) | GI50 (NCI/ADR-RES ovarian) [nM] | TGI (NCI/ADR-RES ovarian) | GI50 (DU-145 prostate) [nM] | TGI (DU-145 prostate) [µM] |
| --- | --- | --- | --- | --- | --- | --- | --- | --- | --- | --- | --- | --- | --- | --- | --- | --- | --- | --- | --- | --- |
| Cc1cc(/C=C\c2ccc3ccccc3[n+]2C)c(O)c2ncccc12 | 331 nM | > 100 | 167 | 1.11 | 399 | > 100 | 0.375 µM | 8.95 | 276 nM | 3.25 µM | 400 | > 100 µM | 196 | 2.15 µM | 0.413 µM | 2.38 µM | 1100 | 13.6 µM | 902 | 4.22 |
| C/C=C\C(CC(=O)NCCc1cn(C(=O)OCc2ccccc2)c2ccccc12)CC(=O)OC (configuration not stated) |  |  |  | > 100 |  | > 100 |  |  |  | > 100 µM |  | > 100 µM |  | > 100 µM |  | > 100 µM |  | > 100 µM |  | > 100 |
| CCNc1ccc2c(c1)Cc1ccccc1-2 |  | > 100 |  | > 100 |  | > 100 |  | > 100 |  | > 100 µM |  | > 100 µM |  | > 100 µM |  | > 100 µM |  | > 100 µM |  | > 100 |
| Cc1cc(O)c(C(C)C)cc1SC#N |  | 24.6 |  |  |  | 88.9 |  |  |  | 33.3 µM |  | 25.3 µM |  | 44.5 µM |  | 37.6 µM |  | 47.7 µM |  | 28.8 |
| Cc1ccccc1-n1c(C)nc2c1C(=O)c1ccccc1C2=O |  | > 100 |  | > 100 |  | > 100 |  | > 100 |  | > 100 µM |  | > 100 µM |  | > 100 µM |  |  |  |  |  |  |
| [Cl][Pt+2][Cl].[NH-]C1CCCCC1[NH-] (configuration not stated) | 3190 nM and 2910 nM and 872 nM | > 100 |  |  |  | > 100 | 8.78 µM and 6.22 µM and 2.62 µM | > 100 | 7210 nM and 3260 nM and 1070 nM | > 58.2 µM and > 100 µM and 17.5 µM |  | > 51.2 µM and > 96.6 µM and 37.9 µM |  | 44.1 µM and > 56.4 µM and 13.1 µM | 18.9 µM and 9.23 µM and 2.45 µM | > 100 µM and 45.8 µM |  | > 60.6 µM and > 100 µM and 13.1 µM |  |  |
| O=[N+]([O-])c1ccc(S[C@@H]2[C@H]3c4c(-c5ccccc5)[nH]c(-c5ccccc5)c4[C@@H]2C[C@H]3Cl)cc1 |  |  |  | > 100 |  | > 100 |  | 22.2 |  | 8.91 µM |  |  |  | > 100 µM |  | > 100 µM |  | 26.4 µM |  | 17.3 |
| N/N=C1/C2CN3CCN(C2)CC1(c1ccc([N+](=O)[O-])cc1)C3 |  |  |  |  |  | > 100 |  | > 100 |  | > 100 µM |  | > 100 µM |  | > 100 µM |  | > 100 µM |  | > 100 µM |  | > 100 |
| COC1OC(Cc2nnc(C)o2)C(OCc2ccccc2)C(OCc2ccccc2)C1OCc1ccccc1 (configuration not stated) |  | 52.7 |  | > 100 |  |  |  | 85.3 |  | 56 µM |  | 33 µM |  | > 100 µM |  | 52.4 µM |  | 70 µM |  | > 100 |
| COC(=O)C1CCC(=O)N1C(=O)Cc1ccc(OC)cc1 (configuration not stated) |  |  |  | > 100 |  | > 100 |  | > 100 |  | > 100 µM |  |  |  | > 100 µM |  | > 100 µM |  |  |  |  |
| OCC1OC(n2cnc3cncnc32)C(O)C1O (configuration not stated) |  | > 26.1 |  |  |  | 3.17 |  | 3.97 |  | 3.68 µM |  | 5.29 µM |  | 1.84 µM |  | 4.81 µM |  | 2.25 µM |  |  |
| Cc1ccc(C(C)(C)C[P+](C)(c2ccccc2)c2ccccc2)cc1 |  | > 79.3 |  |  |  | > 100 |  | > 86.3 |  | > 58.7 µM |  | 42.7 µM |  | > 100 µM |  | > 100 µM |  | > 100 µM |  |  |
